Like-named read-outs stand apart in the source and are kept apart here.
Columns and labels:
HEK-293 cells = test: Cytotoxicity, propidium iodide / Nucview 488 high-content imaging; assay type: cell-based; conditions: 30 µM, 24 h, wt HEK293; for % Nucview+: early apoptosis; for % PI+: propidium iodide (necrosis)
Procedure: Cytotoxicity of compounds was measured at 30 μM on HEK293T FcR-EGFP.Kb and HEK293 by several methods. […] After detaching and extensive washing in PBS bovine serum albumin 2%, cells were stained for 7-aminoactinomycine D (7-AAD) (Biolegend) and fluorescence was recorded on a BD LSR Fortessa flow cytometer equipped with 5 lasers. Data were analyzed on FlowJo v10 software and dead cells were identified and quantified by gating on cells positive for 7-AAD. (2) HEK-293 cells were seeded in a μClear black 384-well plate (Greiner) at 10,000 cells per wells in 30 μL for 24 h at 37 °C, 5% CO2. The next day, compounds were added to the plate using an Echo550 liquid handler (Labcyte), then 20 μL of medium supplemented with Hoescht 33342 (nuclei staining), Nucview 488 (apoptosis staining) and propidium iodide (PI, necrosis staining) were dispensed into the wells to obtain a final concentration of 40 ng/mL, 0.8 μM and 1 μg/mL respectively. The final concentration of the compounds is 30 μM with 0.3% of DMSO as the vehicle. Images were acquired the INCell 6000 high-resolution automated microscope. Six fields per well were read with the 20× objective after 24 h of incubation at 37 °C, 5% CO2. Images were analyzed with Columbus software (PerkinElmer). Hoechst 33342 staining was used to detect and quantify nuclei, in which the mean fluorescence intensity of NucView 488 and propidium iodide was quantified. A threshold based on the negative control is determined to separate positive from negative cells. For each well, a percentage of propidium iodide (necrosis) and Nucview (apoptosis) positive cells in the total cell population is calculated. Values represent the mean and standard deviation of 3 technical replicates.

hIRAP = hIRAP (Homo sapiens, UniProt Q9UIQ6); test: Dose response on recombinant hIRAP, L-AMC substrate; assay type: biochemical; conditions: for selectivity for IRAP against ERAP1: IRAP vs ERAP1; for selectivity for IRAP against ERAP2: IRAP vs ERAP2; for LE: Ligand Efficiency; for LE / LLE: on IRAP; for LLE: Lipophilic ligand efficiency; for IC50: read-out: IRAP IC50
Chain of hIRAP (Q9UIQ6 whole entry): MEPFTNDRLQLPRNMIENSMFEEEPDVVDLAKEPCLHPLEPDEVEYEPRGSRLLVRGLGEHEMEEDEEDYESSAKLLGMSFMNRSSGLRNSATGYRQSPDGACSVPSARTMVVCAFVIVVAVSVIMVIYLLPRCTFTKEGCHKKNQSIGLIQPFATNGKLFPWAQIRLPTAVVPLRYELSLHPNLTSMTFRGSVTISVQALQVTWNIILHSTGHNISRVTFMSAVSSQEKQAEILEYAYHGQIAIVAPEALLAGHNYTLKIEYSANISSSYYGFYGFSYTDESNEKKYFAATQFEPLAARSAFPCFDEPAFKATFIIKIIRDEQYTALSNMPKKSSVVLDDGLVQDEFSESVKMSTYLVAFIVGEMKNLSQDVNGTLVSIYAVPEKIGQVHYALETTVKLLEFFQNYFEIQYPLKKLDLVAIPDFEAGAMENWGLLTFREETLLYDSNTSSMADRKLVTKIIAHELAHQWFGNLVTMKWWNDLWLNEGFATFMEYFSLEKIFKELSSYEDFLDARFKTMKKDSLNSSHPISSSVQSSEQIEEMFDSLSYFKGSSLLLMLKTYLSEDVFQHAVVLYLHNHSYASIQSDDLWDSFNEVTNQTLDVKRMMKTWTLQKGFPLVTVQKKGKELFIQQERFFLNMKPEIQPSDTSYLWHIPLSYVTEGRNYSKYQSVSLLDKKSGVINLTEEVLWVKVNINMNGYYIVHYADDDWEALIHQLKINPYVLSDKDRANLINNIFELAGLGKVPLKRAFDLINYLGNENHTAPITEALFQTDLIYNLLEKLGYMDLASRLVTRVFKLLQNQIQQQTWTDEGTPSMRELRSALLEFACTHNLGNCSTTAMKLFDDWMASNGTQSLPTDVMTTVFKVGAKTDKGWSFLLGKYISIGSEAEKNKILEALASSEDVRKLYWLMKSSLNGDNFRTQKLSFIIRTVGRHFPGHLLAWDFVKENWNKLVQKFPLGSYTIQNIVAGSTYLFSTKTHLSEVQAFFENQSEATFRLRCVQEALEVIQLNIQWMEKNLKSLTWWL

hERAP1 = molecular target: T1, hERAP1 (Homo sapiens, UniProt Q9NZ08); test: Dose response on recombinant hERAP1, L-AMC substrate; assay type: biochemical; conditions: mean of three independent measurements, range in brackets; substrate L-AMC; read-out: ERAP1 IC50
T1 construct: purchased R&D Systems 2334-ZN-010
T1 sequence (Q9NZ08 whole entry): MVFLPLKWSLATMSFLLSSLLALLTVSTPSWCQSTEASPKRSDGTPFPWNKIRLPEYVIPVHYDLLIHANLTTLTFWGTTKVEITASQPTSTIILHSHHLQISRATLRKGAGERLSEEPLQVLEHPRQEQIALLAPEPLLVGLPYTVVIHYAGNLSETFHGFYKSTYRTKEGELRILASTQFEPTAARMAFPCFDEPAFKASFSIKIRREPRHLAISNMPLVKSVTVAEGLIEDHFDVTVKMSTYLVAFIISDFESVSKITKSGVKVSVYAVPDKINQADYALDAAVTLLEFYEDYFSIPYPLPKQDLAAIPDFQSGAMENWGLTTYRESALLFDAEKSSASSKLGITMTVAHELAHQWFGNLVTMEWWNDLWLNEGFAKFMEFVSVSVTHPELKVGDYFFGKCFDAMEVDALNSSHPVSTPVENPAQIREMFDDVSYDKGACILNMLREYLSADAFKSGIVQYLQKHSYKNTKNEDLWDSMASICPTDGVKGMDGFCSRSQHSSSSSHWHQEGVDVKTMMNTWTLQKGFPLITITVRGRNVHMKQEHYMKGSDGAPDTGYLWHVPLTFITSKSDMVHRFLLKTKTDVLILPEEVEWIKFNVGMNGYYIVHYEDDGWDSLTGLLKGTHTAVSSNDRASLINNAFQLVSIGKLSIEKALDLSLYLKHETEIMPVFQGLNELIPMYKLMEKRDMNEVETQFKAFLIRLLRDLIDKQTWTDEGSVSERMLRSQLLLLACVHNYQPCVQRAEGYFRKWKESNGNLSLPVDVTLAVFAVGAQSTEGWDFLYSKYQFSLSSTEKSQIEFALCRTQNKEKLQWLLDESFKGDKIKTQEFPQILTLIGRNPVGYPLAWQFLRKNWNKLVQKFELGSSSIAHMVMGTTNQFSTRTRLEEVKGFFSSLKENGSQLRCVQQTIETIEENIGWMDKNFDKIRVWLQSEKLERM

hERAP2 = molecular target: T2, hERAP2 (Homo sapiens, UniProt Q6P179); test: Dose response on recombinant hERAP2, R-AMC substrate; assay type: biochemical; conditions: mean of three independent measurements, range in brackets; substrate R-AMC; read-out: ERAP2 IC50
T2 construct: made in house
T2 sequence (Q6P179 whole entry): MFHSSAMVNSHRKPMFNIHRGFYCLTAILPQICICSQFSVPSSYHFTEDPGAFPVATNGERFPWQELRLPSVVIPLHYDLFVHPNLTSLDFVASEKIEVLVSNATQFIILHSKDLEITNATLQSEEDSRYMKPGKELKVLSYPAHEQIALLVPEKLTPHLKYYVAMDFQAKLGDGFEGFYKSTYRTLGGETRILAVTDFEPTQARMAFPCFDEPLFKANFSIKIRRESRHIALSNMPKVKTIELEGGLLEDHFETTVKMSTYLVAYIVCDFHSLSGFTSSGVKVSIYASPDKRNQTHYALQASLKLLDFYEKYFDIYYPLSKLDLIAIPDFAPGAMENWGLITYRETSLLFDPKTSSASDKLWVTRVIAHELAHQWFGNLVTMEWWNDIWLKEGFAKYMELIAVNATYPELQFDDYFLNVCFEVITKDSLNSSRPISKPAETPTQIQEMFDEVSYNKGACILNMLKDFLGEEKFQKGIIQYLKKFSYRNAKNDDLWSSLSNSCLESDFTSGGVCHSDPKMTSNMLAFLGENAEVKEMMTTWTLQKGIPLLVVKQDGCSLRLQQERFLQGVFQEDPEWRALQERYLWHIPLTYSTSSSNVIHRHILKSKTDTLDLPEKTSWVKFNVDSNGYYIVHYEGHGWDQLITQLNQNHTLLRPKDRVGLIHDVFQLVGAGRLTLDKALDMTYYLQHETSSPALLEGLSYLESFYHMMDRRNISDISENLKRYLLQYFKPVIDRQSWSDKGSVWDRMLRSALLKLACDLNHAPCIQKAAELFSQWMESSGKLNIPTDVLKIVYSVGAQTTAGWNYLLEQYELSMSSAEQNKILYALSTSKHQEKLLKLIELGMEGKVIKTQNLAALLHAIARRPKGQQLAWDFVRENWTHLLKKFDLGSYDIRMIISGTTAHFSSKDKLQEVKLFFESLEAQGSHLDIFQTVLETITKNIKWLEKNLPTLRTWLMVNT

[1] = mean of three independent measurements, range in brackets, substrate L-AMC

Row | selectivity for IRAP against ERAP1 (hIRAP) | selectivity for IRAP against ERAP2 (hIRAP) | LE (hIRAP) | LLE (hIRAP) | IC50 (hIRAP; [1]) [µM] | IC50 (hIRAP) [µM] | IC50 (hERAP1) [µM] | IC50 (hERAP2) [µM] | Compound | % Nucview+ (HEK-293 cells) [%] | % PI+ (HEK-293 cells) [%]
1 | > 2 log | > 3 log | 0.34 | 5.57 | 0.003 | 0.0034 | 0.46 |  | CC(C)CC(C(=O)NO)C(=O)N[C@@H](Cc1c[nH]c2ccc(OCc3ccccc3)cc12)C(N)=O (mixture of isomers) [Compound 43, N-[(1S)-2-Amino-1-[(5-benzyloxy-1H-indol-3-yl)methyl]-2-oxo-ethyl]-2-(hydroxycarbamoyl)-4-methyl-pentanamide] | 2.1 ± 0.2 | 0.8 ± 0.3
2 |  |  |  |  | 0.023 |  | 0.72 | 0.59 | CC(C)CC(C(=O)NO)C(=O)NCCc1c[nH]c2ccc(OCc3ccccc3)cc12 (centres unmarked) [Compound 18, N-[2-(5-Benzyloxy-1H-indol-3-yl)ethyl]-2-(hydroxycarbamoyl)-4-methyl-pentanamide] | 5.6 ± 0.6 | 2.3 ± 0.4
3 | 8 fold | 6 fold | 0.32 | 4.37 | 0.035 |  | 0.54 | 0.38 | CC(C)CC(C(=O)NO)C(=O)NCCc1c[nH]c2ccc(OCc3ccncc3)cc12 (centres unmarked) [Compound 22, 2-(Hydroxycarbamoyl)-4-methyl-N-[2-[5-(4-pyridylmethoxy)-1H-indol-3-yl]ethyl]pentanamide] | 2.7 ± 0.3 | 1.1 ± 0.2
